Assay results published in patent US5451584A, “N-alkynyl carboxamides as sertonergic agents” (American Home Products Corporation, priority 1994, dated 1995).

Experiments:
[1] = biological target: T1, 5-HT1A serotonin receptor (Rattus norvegicus, UniProt P19327); conditions: buspirone, standard for anxiolytic activity; cited from earlier work
T1 construct: from tissue; inferred from the cited Hall et al. 1985 procedure
T1 sequence (P19327 1-422): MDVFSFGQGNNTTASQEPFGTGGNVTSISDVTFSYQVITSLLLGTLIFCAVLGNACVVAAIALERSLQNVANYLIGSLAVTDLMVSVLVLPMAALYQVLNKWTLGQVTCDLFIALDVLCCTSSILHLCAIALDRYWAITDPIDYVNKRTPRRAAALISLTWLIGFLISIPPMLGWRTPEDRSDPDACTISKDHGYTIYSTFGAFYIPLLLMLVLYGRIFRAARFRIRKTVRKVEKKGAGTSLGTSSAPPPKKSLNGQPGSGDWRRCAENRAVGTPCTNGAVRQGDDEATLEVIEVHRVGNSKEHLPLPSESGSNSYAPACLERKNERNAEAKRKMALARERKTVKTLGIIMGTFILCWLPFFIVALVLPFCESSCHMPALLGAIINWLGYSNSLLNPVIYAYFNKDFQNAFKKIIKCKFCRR

[2] = biological target: T1, 5-HT1A serotonin receptor; experiment: displacement of [^3 H] 8-OHDPAT (dipropylaminotetralin) from the 5-HT1A serotonin receptor; conditions: procedure of Hall et al., read-out: 5-HT1A Binding (IC50)
Method: The compounds of this invention are prepared by conventional methods. For example, the appropriately substituted "acid" is transformed in the presence of a coupling agent like N,N-bis(2-oxo-3-oxazolidinyl)phosphoramidic chloride to yield the desired products ( 1 ). [drawing 3] High affinity for the serotonin 5-HT1A receptor was established by testing the claimed compound's ability to displace [^3 H] 8-OHDPAT (dipropylaminotetralin) from the 5-HT1A serotonin receptor following the procedure of Hall et al., J. Neurochem. 44, 1685 (1985). […] The anxiolytic activity of buspirone is believed to be, at least partially, due to its 5-HT1A receptor affinity (Vander Maclen et al., Eur. J. Pharmacol. 1986, 129 (1-2) […]).

| IC50 [2] [nM] | SMILES | affinity for the 5-HT1A serotonin receptor subtype (in words) [1] |
| --- | --- | --- |
| – | O=C1CC2(CCCC2)CC(=O)N1CCCCN1CCN(c2ncccn2)CC1 [buspirone] | potent affinity |
| 19.4 | C#CCN(C)C(=O)C(CCN1CCN(c2ccccc2OC)CC1)c1ccccc1 (stereo not drawn) [Example 2, 4-[4-(2-Methoxy-phenyl)-piperazin-1-yl]-N-methyl-2-phenyl-N-prop-2-ynyl-butyramide] | – |
| 44.9 | C#CCNC(=O)C(CCN1CCN(c2ccccc2OC)CC1)c1ccccc1 (stereo not drawn) [Example 1, 4-[4-(2-Methoxy-phenyl)-piperazin-1]-2-phenyl-N-prop-2-ynyl-butyramide] | – |
